In patent US20240262832A1, “SMALL MOLECULE MODULATORS OF GLUCOCEREBROSIDASE ACTIVITY AND USES THEREOF” (Vanqua Bio, Inc., priority 2021, published 2024):

Biological target: T1, GCase (Homo sapiens, UniProt P04062)
T1 construct: endogenous in cells; host or cells: HeLa cells
T1 sequence (P04062 40-536): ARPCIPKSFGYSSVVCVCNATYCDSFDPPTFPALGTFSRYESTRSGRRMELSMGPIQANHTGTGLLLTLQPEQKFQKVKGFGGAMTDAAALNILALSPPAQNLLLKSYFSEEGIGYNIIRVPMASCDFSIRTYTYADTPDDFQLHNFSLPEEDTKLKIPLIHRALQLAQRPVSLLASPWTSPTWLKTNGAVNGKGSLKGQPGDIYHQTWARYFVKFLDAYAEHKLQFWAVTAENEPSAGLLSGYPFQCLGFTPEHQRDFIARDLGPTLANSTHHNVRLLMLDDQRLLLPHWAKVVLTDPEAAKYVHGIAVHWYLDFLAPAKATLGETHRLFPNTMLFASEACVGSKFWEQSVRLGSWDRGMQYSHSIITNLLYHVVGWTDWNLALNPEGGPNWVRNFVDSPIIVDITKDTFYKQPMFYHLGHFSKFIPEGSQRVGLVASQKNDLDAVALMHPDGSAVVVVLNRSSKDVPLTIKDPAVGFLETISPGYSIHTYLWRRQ
Experiment: activation of GCase in a live cell PFB assay in HELA cells
Assay type: cell-based

Question: For `FC(F)Cn1ncc2ncc(N3CCC(F)(F)C(COc4cccc(C(F)(F)F)n4)C3)nc21` (stereo not shown) [Compound 42, 2-({1-[1-(2,2-Difluoroethyl)-1H-pyrazolo[3,4-b]pyrazin-6-yl]-4,4-difluoropiperidin-3-yl}methoxy)-6-(trifluoromethyl)pyridine], which EC50 is on record?
Answer: The EC50 was 10 to 50 µM.

Question: For `COc1ccc(OCC2CCN(C(=O)c3cnc[nH]3)CC2)cc1` [Compound 463], which EC50 is on record?
Answer: Its EC50 is 50 to 100 µM.

Question: For `Cc1ccccc1OCC1CCCN(C(=O)c2c(C3CC3)n(-c3ccccc3)c3nccnc23)C1` (stereo not shown) [Compound 255, (6-cyclopropyl-5-phenyl-5H-pyrrolo[2,3-b]pyrazin-7-yl)(3-((o-tolyloxy)methyl)piperidin-1-yl)methanone], which EC50 is on record?
Answer: Its EC50 is 10 to 50 µM.

Question: How did the EC50 turn out when `C[C@@H]1CCN(c2cnc3cnn(CC(F)F)c3n2)C[C@H]1COc1cccnc1C(F)(F)F` [Compound 48d, 1-(2,2-difluoroethyl)-6-((3S,4R)-4-methyl-3-(((2-(trifluoromethyl)pyridin-3-yl)oxy)methyl)piperidin-1-yl)-1H-pyrazolo[3,4-b]pyrazine] was run?
Answer: The EC50 was 10 to 50 µM.

Question: For `C=CCn1ncc(CN2CCC(COc3ccc(OC)cc3)CC2)c1C` [Compound 469], which EC50 is on record?
Answer: The EC50 was greater than 100 µM.

Question: With `Cc1ccccc1OCC1CCCN(c2cnc3cnn(-c4nncs4)c3n2)C1` (stereo not shown) [Compound 23, 2-(6-(3-((o-Tolyloxy)methyl)piperidin-1-yl)-1H-pyrazolo[3,4-b]pyrazin-1-yl)-1,3,4-thiadiazole] as the compound, how does the EC50 read?
Answer: The EC50 was 10 to 50 µM.

Question: For `O=C(c1ccc2ccn(CC3COC3)c2c1)N1CCC[C@H](CCc2ccccc2C(F)(F)F)C1` [Compound 18, 1-[(oxetan-3-yl)methyl]-6-[(3S)-3-{2-[2-(trifluoromethyl)phenyl]ethyl}piperidine-1-carbonyl]-1H-indole], which EC50 is on record?
Answer: The EC50 was 10 to 50 µM.

Question: Which EC50 does the source give for `Cc1ccccc1OCC1CCCN(C(=O)[C@@H]2CCc3nccc(=O)n32)C1` (stereo partly drawn) [Compound 280, (6S)-6-(3-((o-Tolyloxy)methyl)piperidine-1-carbonyl)-7,8-dihydropyrrolo[1,2-a]pyrimidin-4(6H)-one] here?
Answer: Its EC50 is greater than 100 µM.

Question: With `C[C@@H]1CC[C@H](COc2ncccc2C(F)(F)F)CN1c1cnc2cnn(CC(F)F)c2n1` [Compound 277, 1-(2,2-Difluoroethyl)-6-((2R,5S)-2-methyl-5-(((3-(trifluoromethyl)pyridin-2-yl)oxy)methyl)piperidin-1-yl)-1H-pyrazolo[3,4-b]pyrazine] as the compound, how does the EC50 read?
Answer: The EC50 was 10 to 50 µM.

Question: `O=C(c1cn(CC2CCCCC2)nn1)N1CCC(OCc2ccccc2)CC1` [Compound 419] was tested. Which EC50 did it give?
Answer: The EC50 was greater than 100 µM.

Question: How did the EC50 turn out when `O=C(c1ccc2cc[nH]c2c1)N1CCC(Oc2ccncc2C(F)(F)F)CC1` [Compound 318, (1H-Indol-6-yl)(4-((3-(trifluoromethyl)pyridin-4-yl)oxy)piperidin-1-yl)methanone] was run?
Answer: The EC50 was 10 to 50 µM.

Question: How did the EC50 turn out when `COc1ccc(OCC2CCN(C(=O)c3cccc(NC(=O)C(C)C)c3)CC2)cc1` [Compound 446] was run?
Answer: The EC50 was 10 to 50 µM.

Question: How did the EC50 turn out when `C[C@@H]1CC[C@H](COc2cccc(C(F)(F)F)n2)CN1c1cnc2cnn(CC(F)F)c2n1` [Compound 269, 1-(2,2-Difluoroethyl)-6-((2R,5S)-2-methyl-5-(((6-(trifluoromethyl)pyridin-2-yl)oxy)methyl)piperidin-1-yl)-1H-pyrazolo[3,4-b]pyrazine] was run?
Answer: The EC50 was greater than 100 µM.

Question: Which EC50 does the source give for `CC1CC(COc2cccnc2C(F)(F)F)CN(c2cnc3cnn(CC(F)F)c3n2)C1` (single isomer, unassigned) [Compound 47b] here?
Answer: The EC50 was less than 10 µM.

Question: For `FC(F)Cn1ncc2ncc(N3C[C@H](COc4cccnc4C(F)(F)F)C[C@H](OC(F)F)C3)nc21` [Compound 299a, 1-(2,2-Difluoroethyl)-6-((3S,5R)-3-(difluoromethoxy)-5-(((2-(trifluoromethyl)pyridin-3-yl)oxy)methyl)piperidin-1-yl)-1H-pyrazolo[3,4-b]pyrazine], which EC50 is on record?
Answer: Its EC50 is 10 to 50 µM.

Question: Which EC50 does the source give for `O=C(c1cnn(-c2ccccc2F)n1)N1CCCC(COc2ccccc2)C1` (stereo not shown) [Compound 22, (2-(2-Fluorophenyl)-2H-1,2,3-triazol-4-yl)(3-(phenoxymethyl)piperidin-1-yl)methanone] here?
Answer: Its EC50 is 10 to 50 µM.
